“Also recorded” adds a separate entry of the source.

Here are results for one sequence from patent publication US7417025B2, “Use of poly-α2,8-sialic acid mimetic peptides to modulate NCAM functions” (Centre National de la Recherche Scientifique, priority 2002, dated 2008).

In one assay the test system is 30H12 antibody. As to the kind of experiment: ELISA with peptide-BSA conjugate on 30H12-coated plates. Format: binding. The settings on record: no competitor, FIG. 12A. An excerpt:
FIG. 12A: ELISA using 30H12 anti-PSA monoclonal antibody-coated plates.
The specificity of the cyclic peptides was investigated in an ELISA assay using plates coated with 30H12 antibody, following the protocol as described above for the competitive ELISA, with the exception that the competitor was omitted.
On the technique in general: In an ELISA, binding on a coated surface is turned into a signal by an enzyme label.

For assay [1], the system named is 30H12 monoclonal antibody. Nature of the assay: Competitive binding to PSA-NCAM expressing cells (30H12). On the set-up: dose or concentration left out as unconfirmed. As to the method: FIGS. 12B, 12C and 12D: competitive binding to PSA-NCAM expressing cells. B: pre-incubation of p65 (1 mM) or p66 (1 mM) with MenB anti-PSA antibody. C: 30H12 anti-PSA antibody without peptide. […]
(§1) The specificity of p65 and p66 peptides was tested in a competition assay using anti-PSA antibodies and PSA-NCAM expressing cells. […] The binding specificity was examined in greater detail by testing peptide recognition by another anti-PSA mononclonal antibody (MenB). […] Thus, p65 and p66 mimotopes appear to be specific for a unique (idiotypic) determinant.

In assay [2] the test system is subventricular zone explants (neuronal precursors). As to the kind of experiment: Subventricular zone (SVZ) explant culture: cell migration in vitro. Format: cell-based, mouse. As to the method:
Cultures of SVZ explants were performed as described in Chazal et al., precited. Briefly, 1-day-old mice were killed by rapid decapitation. Brains were dissected out and sectionned by Vibratome (Leica). The SVZ from the lateral wall of the anterior lateral ventricle horn was dissected out in HBSS medium (LIFE TECHNOLOGIES) and cut into 200-300 μm diameter explants. The explants were mixed with Matrigel (BECKTON DICKINSON) and cultured in four-well dishes. After polymerisation, the gel was overlaid with 400 μl of serum-free medium containing B-27 supplement (LIFE TECHNOLOGIES), in the presence or the absence of 40 μM of peptides (p65, p66, reverse p65, p21 or p22) and 70 U of Endo N per milliliter.
(§2) After 48 h in culture, explants were examining directly (SVZ) or after overnight fixation with a 4% paraformaldehyde solution in PBS and immunostaining (DRGs). Observation was done using 2, 5×, 5×, 10× and 32× objectives (Axiovert 35M, ZEISS). Images were collected with a video camera (Cool View, PHOTONIC SCIENCE) and analysed using image-processing software (Visiolab1000, BIOCOM). Mean migration distance (calculated on five different experiments, including at least five explants per condition) or mean length of the longest neurite (calculated on two different experiments, including at least eight explants per condition), was the distance in micrometers between the explant edge and the border of the cell migration front. Four measurements were performed for each explant. The significance of the differences between the control and the different experimental conditions was calculated by Student's t test.

The subject of a further assay is chick retina axons. Nature of the assay: Intravitreal injection in chick embryo, retinal whole mount: axon fasciculation and guidance in vivo. The settings on record: injected into chicken embryo eyes at E3, retina observed at E9. As to the method:
The dashed rectangle indicates the area from which photographs were taken. Arrows point toward the optic fissure. Axons of E9 chick retina injected at E3 with the reverse peptide (C,F) or the p65 peptide (D,G,E,H). Arrowheads show examples of axons that leave their fascicle and run perpendicularly to it.
Injections were performed as described in Monnier et al. (Developmental Biology, 2001, 229, 1-14). Briefly, a 2×2 cm window was cut into the shell over E3 chick embryos. One μl of Fast green with 10 mM of p65 or reverse peptide was injected into the right eye vitreous body using a capillary. After a five-days incubation at 37° C., (E8) retinae were dissected, spread onto nitrocellulose filters (MILIPORE), and fixed with 4% paraformaldehyde solution in PBS. Two small DiI (1,1′-dioctadecyl-3,3,3′,3′-tetramethylindocarbocyanine perchlorate) crystals were applied dorsally to the optic fissure. Retinae were stored in the dark at 37° C. for 10 days until the dye reached the axonal growth cones in the fissure, mounted in glycerol:PBS (9:1, v:v) and analysed using confocal microscopy.

A further assay relates to MenB anti-PSA antibody. Nature of the assay: Competitive binding to PSA-NCAM expressing cells (MenB). The procedure: FIGS. 12B, 12C and 12D: competitive binding to PSA-NCAM expressing cells. B: pre-incubation of p65 (1 mM) or p66 (1 mM) with MenB anti-PSA antibody. C: 30H12 anti-PSA antibody without peptide. D: pre-incubation of p65 (1 mM) or p66 (1 mM) with 30H12 anti-PSA antibody.
as §1

For assay [3], the system named is subventricular zone explants (neuronal precursors). As to the kind of experiment: Subventricular zone (SVZ) explant culture: cell migration in vitro. Format: cell-based, mouse. The settings on record: 0.4 μM peptide.
Assay [4] has as its system Mouse dorsal root ganglion explants (E13.5). As to the kind of experiment: Dorsal root ganglion explant culture: neurite outgrowth and fasciculation. Format: cell-based. The procedure:
E13.5 DRGs were dissected out from mice embryos in HBSS medium and seeded on glass coverslips coated with polylysine or with peptides linked to BSA. Explants were cultured in the presence or the absence of the peptides under soluble form (40 μM) in two ml of neurobasal medium (DMEM/Ham's F12, 3:1 (V/V), GIBCO, buffered with 20 mM Hepes), supplemented as described in Faivre-Sarrailh et al., J. Cell. Sci., 1999, 18, 3015-3027 and Chazal et al., J.Neurosci., 2000, 20, 1446-1457.
Fixed DRGs (Dorsal Root ganglia) explants and sections were incubated at 4° C. respectively 2 hr with an anti-neurofilament (SMI-31, dilution 1:800, STERNBERGER MONOCLONALS) and overnight with an anti-PSA antibody (dilution 1:200, Rougon et al, J. Cell. Biol., 1986, 103, 2429-2437). Revelation was performed by 1 hr incubation with the corresponding fluorescent-labeled secondary antibody (Goat anti-mouse IgM or IgG conjugated with texas red, IMMUNOTECH)
as §2
Mouse dorsal root ganglion explants (E13.5) were cultured in the presence of p65 and p66 cyclic mimetic peptides, either in soluble form or coated on the microplates as BSA conjugates. Cells cultured in the absence of peptides or in the presence of reverse peptides (coated or in soluble form) were used as controls.

Setting [5] is: peptide in coated form (BSA conjugate).
Where [6] appears, read: peptide in soluble form (40 μM), versus controls.

CSKIASMETGCG [p66]: the “Binding of cyclic peptides to 30H12 antibody in ELISA” value with 30H12 antibody is “highest binding”. Moreover, in assay [1], the “Binding of 30H12 monoclonal antibody to PSA-NCAM expressing cells after pre-incubation with peptide” value is listed as “prevented its binding”. The “Rate of migration of the neuronal precursors and chain-like arrangement” value in assay [2] (SVZ explants in Matrigel, FIG. 4) is “increases the rate of migration”. Moreover, in assay [2] (with endo N treatment), the “PSA-dependence of the migration effect” value is “abolished by endo N treatment”. In addition, the “Axon guidance and fasciculation in retina in vivo” value with chick retina axons was “axons guidance and fasciculation defects”. Also, in the assay on MenB anti-PSA antibody (FIG. 12C), the “Recognition of PSA-NCAM by MenB after pre-incubation with peptide” value is “did not prevent recognition of PSA-NCAM”. For the same sequence, in the assay on MenB anti-PSA antibody (in words), the “Antibody specificity of peptide binding (30H12 versus MenB)” value is listed as “bind only to 30H12”. The “Increase in the rate of migration of the neuronal precursors compared with the control without peptide” value in assay [3] is on record as “+26%”. In addition, in assay [4] (setting [5]), the Fasciculation entry is reported as “opposite effect on fasciculation” and the Neurite outgrowth entry was “no effect on neurite outgrowth; also recorded: no significant increase”. Besides, in assay [4] (setting [6]), the Axonal growth entry is given as “significant increase in axonal growth” and the “Fasciculation of axon bundles” value was “clear defasciculation of axon bundles”. Also, the “Increase of neurite outgrowth compared to the controls” value in assay [4] (peptide in soluble form, mean length of the longest neurite) is 21%.
